Measurements from US7538234B2, “Preparation of Optically active 2-(1-hydroxyethyl)-5-hydroxynaphtho[2,3-b]furan-4, 9-diones having anticancer activities” (Taheebo Japan Co., Ltd., priority 2007, dated 2009).

How the values were obtained:
[1] = test system: human breast cancer cell MCF-7; assay: Cytotoxicity experiment (trypan blue dead cell count, 3 days incubation); assay type: cell-based; settings: for EC50: concentration of 50% of dead cells, 3 days incubation
Experimental: (§1) Cytotoxicity experiments were carried out by using human prostate cancer cell PC-3 (Invest. Urology 17: 16, (1979)), human lung cancer cell A-549 (J. Nat. Cancer Inst. 51: 1417, (1973)) and human breast cancer cell MCF-7 (cr. Table 1). Cells used in the experiments were obtained from Laboratory Products Dept. of Dainippon Pharmaceuticals Inc. (now Dainippon Sumitomo Pharma Co., Ltd.). • (1) In 3 cm plastic petri dish, 5×10^6 of the above human origin cancer cell was incubated at 37° C. under 5% CO2 gas on an incubation medium wherein 10% fetal bovine serum (FBS) was added to a basal medium Dulbecco's modified eagle medium (DMEM). • (2) It was confirmed 1 day after the incubation that the cells were adhered to the petri dish. All incubation media were discarded, and to the cells were added fresh media (1 ml) to give reaction media. Thereto was added a solution of a test compound in DMSO (2 μl), and the mixture was incubated for 3 days under the same conditions as in the above (1). • (3) 3 days after the incubation, all cells were collected with a scrapper, and the mixture was softly stirred. Then, an aliquot (0.1 ml) was taken into a tube, and thereto was added 0.25% trypan blue solution (0.1 ml), and the mixture was stirred and then allowed to stand for 10 minutes. Both of dead and live cells suspended in the mixture were observed using a white cell counter under light microscope to calculate cytotoxicity effects to the cancer cells. • (4) The number of the observed dead cells was calculated on the basis of the total number of cells observed as 100% using a white cell counter. Each bioactivity evaluation of each compound was represented by EC50 value (μM), which refers to a concentration of 50% of dead cells (cf. Table 1).

[2] = test system: human lung cancer cell A-549; assay: as above; assay type: cell-based; settings: for EC50: concentration of 50% of dead cells, 3 days incubation
Experimental: as §1

[3] = test system: human prostate cancer cell PC-3; assay: as above; assay type: cell-based; settings: for EC50: concentration of 50% of dead cells, 3 days incubation
Experimental: as §1

[4] = test system: Epstein-Barr virus early antigen (EBV-EA); assay: Inhibitory effect of TPA-induced EBV-EA activation in Raji cells; assay type: cell-based, human; settings: for EBV-EA-positive cell: Raji cells, 2 days
Experimental: (§2) Additionally, cancer-preventing effects about Epstein-Barr virus early antigen (EBV-EA) using Raji cell, which was available from George Klein, Karolinska Institute, Sweden, were studied (cf. Table 2). • (1) To a reaction culture (1 ml) in a 15 ml plastic tube were added 1×10^6 of lymphoma Raji cells of human origin, and the mixture was incubated for 2 days at 37° C. under 5% CO2 gas. The reaction culture was a solution wherein butyric acid was added to RPMI-1640 (Roswell Park Memorial Institute) medium containing 8% FBS in a concentration of 4 mM. In case of positive controls, to the reaction culture was added 12-O-tetradecanoylphorbol-13-acetate (TPA) (20 ng, 32 pmol). • (2) Analysis was carried out by adding test compounds to the reaction culture in the above (1) with TPA in 1000, 500, 100 and 10 times higher concentration by mole (32, 16, 3.2 and 0.32 nmol) to TPA and incubating in a similar manner to the above. • (3) 2 days after incubation, a reaction tube was centrifuged at 1000 rpm for 10 minutes, and supernatants were discarded to collect reaction cells at the bottom of the tube, and thereto was added a phosphate buffered saline (0.1 ml) and the mixture was mixed well. To a glass slide for pathological pieces was added the mixture (5 μl), and then the mixture was air-dried to dryness. • (4) An antigen-antibody reaction was carried out at 37° C. in wet process by adding a diluted serum (1 μl) of patient with epipharynx carcinoma to the dried mixture. 45 minutes after the reaction, the resultant was washed with neutral phosphate buffer three times and then air-dried in a similar manner to the above. Then, thereto was added human blood gamma globulin antibody (1 μl), wherein a fluorescent substance was bound, to carry out an antigen-antibody reaction. 45 minutes after the reaction, the mixture was washed with neutral phosphate buffer to give a test sample. • (5) The test sample on a glass slide was observed under fluorescent light microscope. Both of dead and live cells were calculated, and the survival ratio in percentage is shown as a cancer-preventing activity, and the data of each sample were compared (cf. Table 2).

Raji cell = assay: Survival of Raji cells in the EBV-EA activation test; assay type: cell-based, human; settings: 2 days
Experimental: as §2

[5] = compound concentration 10 (molar ratio/32 pmol TPA)
[6] = compound concentration 100 (molar ratio/32 pmol TPA)
[7] = compound concentration 500 (molar ratio/32 pmol TPA)
[8] = compound concentration 1000 (molar ratio/32 pmol TPA)

Structure (SMILES)	EC50 ([1]; Homo sapiens, MCF7, 72 h) [nM]	EC50 ([2]; Homo sapiens, A549, 72 h) [nM]	EC50 ([3]; Homo sapiens, 72 h) [nM]	EBV-EA-positive cell [4, 5] [%]	EBV-EA-positive cell [4, 6] [%]	EBV-EA-positive cell [4, 7] [%]	EBV-EA-positive cell [4, 8] [%]	% survival (value in parentheses) (Raji cell; [7])	% survival (value in parentheses) (Raji cell; [8]) [%]	EC50 [1] [nM]	EC50 [2] [nM]	EC50 [3] [nM]	cytotoxicity compared with mitomycin ([1]; MCF-7, statement in words)	cytotoxicity compared with mitomycin ([2]; A-549, statement in words)	cytotoxicity compared with mitomycin ([3]; PC-3, statement in words)	inhibition of EBV-EA expression ([4]; statement in words)
CC(O)c1cc2c(o1)C(=O)c1cccc(O)c1C2=O (racemic) [Racemate NQ801, 2-(1-hydroxyethyl)-5-hydroxynaphtho[2,3-b]furan-4,9-dione]	8500	3240	560	52.9	20.7	6.2	0	(70) %	60	–	–	–	–	–	–	–
C[C@@H](O)c1cc2c(o1)C(=O)c1cccc(O)c1C2=O [(R)-NQ801]	–	–	–	59.4	24.7	9.7	0	–	70	9300	3000	930	–	–	–	–
C[C@H](O)c1cc2c(o1)C(=O)c1cccc(O)c1C2=O [(S)-NQ801, (S)-2-(1-hydroxyethyl)-5-hydroxynaphtho[2,3-b]-furan-4,9-dione]	3500	960	140	50	16.9	4.4	0	(60) %	60	–	–	–	same cytotoxicity as mitomycin	same cytotoxicity as mitomycin	same cytotoxicity as mitomycin	inhibits EBV-EA expression
CO[C@@]12[C@H](COC(N)=O)C3=C(C(=O)C(C)=C(N)C3=O)N1C[C@@H]1N[C@@H]12 [Mitomycin]	960	430	140	–	–	–	–	–	–	–	–	–	–	–	–	–
CC1(C)CCC2=C(O1)c1ccccc1C(=O)C2=O [β-Lapachone, 3,4-dihydro-2,2-dimethyl-2H-naphtho(1,2-b)pyrane-5,6-dione]	–	–	–	73.1	50.4	21.7	4.7	–	50	–	–	–	–	–	–	–
